From patent US20250163056A1, “NONMUSCLE MYOSIN II INHIBITORS” (The University of Florida Research Foundation, Inc., priority 2018, published 2025)
Where two headings read alike, the source gives them in different places.

Assays:
rodent behaviors = conditions: systemically administered
Bovine cardiac myosin = Bovine cardiac myosin (Bos taurus (Bovine), UniProt Q9BE39); test: Cardiac muscle myosin II actin-activated ATPase assay (NADH-coupled); format: biochemical; conditions: for CMMII/NMII Ratio: cardiac Ki relative to NMII EC50; for Ratio CMMII:NMII Ki/EC50: cardiac myosin II Ki over nonmuscle myosin II EC50
Method in brief: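 Inhibitory constants came from a quadratic one-to-one binding fit of 16-point dose-responses (highest final 50 uM, triplicate). Rates were NADH-calibrated fluorescence slopes over 30 min at 25° C, with 300 nM bovine cardiac myosin, 10 μM actin and 1 mM ATP coupled through PK/LDH in pH 7.0 MOPS buffer.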

nonmuscle myosin II = nonmuscle myosin II (Chlorocebus sabaeus, UniProt A0A0D9RDH4); test: Cytokinesis cell-based assay of nonmuscle myosin II function in COS7 cells; conditions: read-out: NMII EC50
Procedure: Cytokinesis is a cell-based assay to assess nonmuscle myosin II function, performed using COS7 cells. The assay is run in a 96 well plate, with 2,000 cells plated per well. Total incubation time is 48 hours, with 24 hours of treatment with the compound of interest. Prior to treatment with small molecules, a two-fold dilution series of compound solutions is prepared in DMSO. Starting concentrations are determined based on compound solubility. Compound solutions are further diluted in DMEM medium to a final DMSO concentration of 2% (50-fold dilution). Subsequently, 100 μl diluted solution is transferred to each well of the plate containing 100 μl of cell culture (achieving 1% final DMSO concentration). All measurements are carried out in triplicate. Cells are stained by fluorescein diacetate (6 μM), a cell viability dye, the cell-permeant Hoescht33342 (10 μM) and the membrane-impermeant propidium iodide (4 μM) to label all nuclei and those belonging to dead cells, respectively. Dye solutions are replaced by fresh media after 10 minutes of incubation. An INCell Analyzer 6000 is used for imaging. […] Cytotoxicity is also assayed and quantified as the ratio of dead nuclei to total nuclei. […] Half maximal effective concentration (EC50) is determined by fitting the 6-point dose-response data to the Hill equation.

[1] = system: hiPS cardiomyocytes (Cor.4U CMs); test: Cardiac safety assay 1: beating parameters of cardiomyocytes (xCELLigence RTCA Cardio); format: cell-based, human; conditions: hiPS-derived cardiomyocytes
Procedure: The spontaneous contractions of cardiomyocytes (CMs) is measured label-free in real time using the ACEA xCELLigence RTCA Cardio instrument. All measurements are performed at 37° C. in a cell culture incubator, allowing for spontaneous beating of CMs at physiological conditions. Cor.4U CMs are seeded at 3×10^4 cells/well in 180 μl/well maintenance medium. Prior to seeding, a background impedance measurement (plate plus medium) is performed. The contraction of CMs involves cyclic modulation of cell morphology and adhesion inducing a delta change in impedance. From the cyclic changes in impedance a beating frequency, amplitude and effects on beating pattern can be calculated. Time point “0” (baseline) is recorded 10× for 20 seconds at 1 minute intervals. Thereafter, compounds and control (0.1% DMSO) are added to the wells and effects are measured 30 minutes later. Vehicle control is 0.1% DMSO and positive control is 100 nM isoproterenol. Compounds are tested at 0.1, 0.3, 1.0 and 3.0 uM. Data is collected at 5, 10, 15, 20 and 30 minutes, and 1, 4, 6, 12 and 24 hours post-incubation.

Rabbit skeletal myosin = test: Skeletal muscle myosin II actin-activated ATPase assay; format: biochemical; conditions: 20 nM skeletal muscle myosin II; read-out: SKMMII KI
Method in brief: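 Inhibitory constants come from a quadratic one-site fit of 16-point, triplicate dose-response data, highest compound concentration 50 uM. Rates are slopes of NADH fluorescence decline over 30 min, coupling ATP turnover of 20 nM rabbit skeletal myosin II with 10 μM actin and 1 mM ATP via PK/LDH, pH 7.0, 25 °C.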

[2] = Photostability, percentage remaining undegraded under illumination or in the dark; conditions: for Photostability 4 hours: percentage remaining undegraded after 4 hours illumination; for Photostability 24 hours: percentage remaining undegraded after 24 hours illumination; for Photostability Dark (24 h): percentage remaining undegraded in the dark
[3] = cardiac muscle myosin II, read-out: CMMII Ki
[4] = 300 nM cardiac myosin, 10 μM actin, 25° C., read-out: CMMII KI

Chain of Bovine cardiac myosin (Q9BE39 whole entry): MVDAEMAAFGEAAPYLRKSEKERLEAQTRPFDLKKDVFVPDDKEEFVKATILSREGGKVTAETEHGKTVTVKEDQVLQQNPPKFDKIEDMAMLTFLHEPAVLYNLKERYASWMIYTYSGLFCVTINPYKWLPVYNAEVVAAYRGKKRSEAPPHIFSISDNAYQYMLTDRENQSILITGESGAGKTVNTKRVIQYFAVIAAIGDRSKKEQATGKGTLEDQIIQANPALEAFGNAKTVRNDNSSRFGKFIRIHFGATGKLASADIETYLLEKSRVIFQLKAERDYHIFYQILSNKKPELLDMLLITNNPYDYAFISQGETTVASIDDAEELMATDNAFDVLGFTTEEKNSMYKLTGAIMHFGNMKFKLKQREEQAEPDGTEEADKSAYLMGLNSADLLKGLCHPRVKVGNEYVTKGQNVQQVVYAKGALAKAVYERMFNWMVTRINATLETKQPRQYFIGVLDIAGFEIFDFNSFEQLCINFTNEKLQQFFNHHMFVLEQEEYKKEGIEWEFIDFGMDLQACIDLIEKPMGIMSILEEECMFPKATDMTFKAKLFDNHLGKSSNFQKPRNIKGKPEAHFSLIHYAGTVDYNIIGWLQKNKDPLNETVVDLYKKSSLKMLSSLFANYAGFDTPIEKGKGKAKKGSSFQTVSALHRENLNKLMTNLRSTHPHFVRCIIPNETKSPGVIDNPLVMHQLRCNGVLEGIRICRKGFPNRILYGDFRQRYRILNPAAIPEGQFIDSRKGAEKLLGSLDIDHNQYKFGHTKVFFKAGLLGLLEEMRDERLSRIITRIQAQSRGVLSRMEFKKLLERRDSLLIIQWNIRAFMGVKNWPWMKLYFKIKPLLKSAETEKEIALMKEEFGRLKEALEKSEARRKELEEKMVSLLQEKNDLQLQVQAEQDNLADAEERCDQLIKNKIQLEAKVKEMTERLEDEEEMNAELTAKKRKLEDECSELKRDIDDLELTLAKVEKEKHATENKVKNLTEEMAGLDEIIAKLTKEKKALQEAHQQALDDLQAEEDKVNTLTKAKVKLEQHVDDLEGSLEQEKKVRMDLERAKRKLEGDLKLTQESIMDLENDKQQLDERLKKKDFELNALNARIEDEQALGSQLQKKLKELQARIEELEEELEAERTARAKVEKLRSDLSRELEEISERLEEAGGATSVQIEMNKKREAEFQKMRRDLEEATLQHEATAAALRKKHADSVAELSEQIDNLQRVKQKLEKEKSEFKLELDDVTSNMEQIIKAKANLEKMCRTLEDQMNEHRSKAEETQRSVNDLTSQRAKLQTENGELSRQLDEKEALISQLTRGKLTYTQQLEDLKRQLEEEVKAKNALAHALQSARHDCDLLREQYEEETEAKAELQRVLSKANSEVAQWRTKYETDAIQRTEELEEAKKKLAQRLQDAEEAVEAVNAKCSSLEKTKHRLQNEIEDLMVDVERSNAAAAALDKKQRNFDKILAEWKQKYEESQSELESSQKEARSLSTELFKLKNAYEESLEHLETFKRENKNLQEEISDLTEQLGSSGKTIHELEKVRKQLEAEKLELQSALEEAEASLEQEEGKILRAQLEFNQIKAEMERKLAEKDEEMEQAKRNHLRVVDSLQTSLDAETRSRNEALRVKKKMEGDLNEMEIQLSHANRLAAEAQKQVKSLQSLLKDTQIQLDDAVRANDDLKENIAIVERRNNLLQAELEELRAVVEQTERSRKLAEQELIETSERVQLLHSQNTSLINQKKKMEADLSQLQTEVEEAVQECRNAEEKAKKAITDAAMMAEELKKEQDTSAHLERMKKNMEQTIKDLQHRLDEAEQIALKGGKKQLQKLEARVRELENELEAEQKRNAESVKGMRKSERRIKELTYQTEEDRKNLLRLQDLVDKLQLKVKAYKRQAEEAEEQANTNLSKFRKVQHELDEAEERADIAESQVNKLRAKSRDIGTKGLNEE
Chain of Bovine cardiac myosin (P85100 whole entry partner): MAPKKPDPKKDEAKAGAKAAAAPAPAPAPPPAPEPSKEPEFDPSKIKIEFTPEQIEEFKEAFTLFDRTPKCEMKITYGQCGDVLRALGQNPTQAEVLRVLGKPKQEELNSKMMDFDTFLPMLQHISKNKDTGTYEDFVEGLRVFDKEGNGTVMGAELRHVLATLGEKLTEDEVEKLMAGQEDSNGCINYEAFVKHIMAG
Chain of Bovine cardiac myosin (Q3SZE5 whole entry partner): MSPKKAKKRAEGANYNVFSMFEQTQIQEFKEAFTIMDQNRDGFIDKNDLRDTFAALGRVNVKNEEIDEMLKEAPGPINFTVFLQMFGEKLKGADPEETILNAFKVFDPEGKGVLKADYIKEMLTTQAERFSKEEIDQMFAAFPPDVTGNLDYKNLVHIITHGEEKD
Chain of nonmuscle myosin II (A0A0D9RDH4 1-1976): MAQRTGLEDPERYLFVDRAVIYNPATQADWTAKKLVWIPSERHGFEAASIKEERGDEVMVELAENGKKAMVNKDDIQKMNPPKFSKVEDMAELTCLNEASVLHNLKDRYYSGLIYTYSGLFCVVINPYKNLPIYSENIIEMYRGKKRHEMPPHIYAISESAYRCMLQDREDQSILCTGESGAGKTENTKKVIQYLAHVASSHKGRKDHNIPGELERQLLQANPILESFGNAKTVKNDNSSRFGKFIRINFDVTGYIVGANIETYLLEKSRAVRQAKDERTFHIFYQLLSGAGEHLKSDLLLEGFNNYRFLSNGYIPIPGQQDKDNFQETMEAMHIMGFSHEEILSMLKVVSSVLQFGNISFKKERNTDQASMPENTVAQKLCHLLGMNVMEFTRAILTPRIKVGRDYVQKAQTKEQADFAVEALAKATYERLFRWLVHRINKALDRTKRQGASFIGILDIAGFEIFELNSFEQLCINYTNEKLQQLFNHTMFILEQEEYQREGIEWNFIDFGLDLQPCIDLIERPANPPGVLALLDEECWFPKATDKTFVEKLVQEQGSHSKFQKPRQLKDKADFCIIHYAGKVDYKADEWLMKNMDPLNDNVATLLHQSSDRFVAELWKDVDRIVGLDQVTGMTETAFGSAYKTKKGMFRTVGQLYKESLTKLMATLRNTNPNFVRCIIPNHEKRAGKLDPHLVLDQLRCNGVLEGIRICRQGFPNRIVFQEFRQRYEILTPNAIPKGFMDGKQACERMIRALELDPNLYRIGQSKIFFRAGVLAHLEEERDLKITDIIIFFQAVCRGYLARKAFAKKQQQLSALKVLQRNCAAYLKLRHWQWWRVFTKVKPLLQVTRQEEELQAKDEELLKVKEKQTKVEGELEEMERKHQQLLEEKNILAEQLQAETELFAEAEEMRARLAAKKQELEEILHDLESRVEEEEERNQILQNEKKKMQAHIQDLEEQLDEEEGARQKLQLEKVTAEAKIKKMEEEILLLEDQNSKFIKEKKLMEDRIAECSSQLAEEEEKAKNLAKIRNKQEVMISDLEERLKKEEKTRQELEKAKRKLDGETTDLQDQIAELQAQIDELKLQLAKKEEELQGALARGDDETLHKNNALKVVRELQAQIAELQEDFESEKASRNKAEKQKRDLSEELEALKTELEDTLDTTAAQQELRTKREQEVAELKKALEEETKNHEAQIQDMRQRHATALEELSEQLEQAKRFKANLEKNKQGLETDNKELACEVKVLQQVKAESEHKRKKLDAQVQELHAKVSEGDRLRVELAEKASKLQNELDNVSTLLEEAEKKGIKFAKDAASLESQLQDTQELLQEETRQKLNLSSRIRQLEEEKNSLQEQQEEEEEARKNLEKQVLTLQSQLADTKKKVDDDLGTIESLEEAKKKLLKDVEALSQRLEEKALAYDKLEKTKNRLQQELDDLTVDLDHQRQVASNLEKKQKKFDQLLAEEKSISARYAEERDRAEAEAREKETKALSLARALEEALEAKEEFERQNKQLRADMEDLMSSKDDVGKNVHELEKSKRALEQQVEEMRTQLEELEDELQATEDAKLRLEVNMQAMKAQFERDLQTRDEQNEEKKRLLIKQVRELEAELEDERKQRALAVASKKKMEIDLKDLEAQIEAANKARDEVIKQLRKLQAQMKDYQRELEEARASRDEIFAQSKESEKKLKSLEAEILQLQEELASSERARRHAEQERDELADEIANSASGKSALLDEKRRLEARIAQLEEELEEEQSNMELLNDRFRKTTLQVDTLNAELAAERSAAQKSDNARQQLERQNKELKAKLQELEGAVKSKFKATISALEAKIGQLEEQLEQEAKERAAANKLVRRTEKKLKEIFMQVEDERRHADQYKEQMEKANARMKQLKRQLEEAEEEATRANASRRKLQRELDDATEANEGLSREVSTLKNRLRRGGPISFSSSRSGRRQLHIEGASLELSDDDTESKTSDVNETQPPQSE

CMMII/NMII Ratio (Bovine cardiac myosin)	Ki (Bovine cardiac myosin; [3]) [µM]	Ki (Bovine cardiac myosin; [4]) [µM]	Ratio CMMII:NMII Ki/EC50 (Bovine cardiac myosin)	Ki (Rabbit skeletal myosin) [µM]	Photostability 4 hours [2] [%]	Photostability 24 hours [2] [%]	Photostability Dark (24 h) [2] [%]	SMILES	effect in a broad panel of rodent behaviors (rodent behaviors)	EC50 (nonmuscle myosin II) [µM]	Change in amplitude at 1 uM @ 15 min [1]	Qualitative impact on contractility (e.g. Full = Complete inhibition of contraction) ([1]; 0.1 uM-1.0 uM)	Qualitative impact on contractility (e.g. Full = Complete inhibition of contraction) ([1]; 3.0 uM)	Photostability 4 hours (4 h) [%]	Photostability 24 hours (24 h) [%]	Photostability Dark (24 h) [%]
–	–	–	–	–	–	–	–	Cc1ccc2c(c1)C(=O)C1(O)CCN(c3ccccc3)C1=N2 (racemic) [racemic Blebb]	no effect	–	–	–	–	–	–	–
9.25	47.2	120	23.5	22	96.1	48.6	>99	Cc1ccc2c(c1)C(=O)[C@]1(O)CCN(c3cccc(Cl)c3)C1=N2 [BPN-0025059]	–	–	+1.1 ± 0.1%	0.1 uM-1.0 uM: No effect; 3.0 uM:	Small effect	–	–	–
3.51	26.3	48	6.4	9.7	82.8	4.7	99.0	Cc1cccc(N2CC[C@@]3(O)C(=O)c4cc(C)ccc4N=C23)c1 [BPN-0025100]	–	–	−7.8 ± 1.3%	0.1 uM-1.0 uM: No effect; 3.0 uM:	Small effect	–	–	–

SMILES	CMMII/NMII Ratio (Bovine cardiac myosin)	Ki (Bovine cardiac myosin; [3]) [µM]	Ki (Bovine cardiac myosin; [4]) [µM]	Ratio CMMII:NMII Ki/EC50 (Bovine cardiac myosin)	Ki (Rabbit skeletal myosin) [µM]	Photostability 4 hours [2] [%]	Photostability 24 hours [2] [%]	Photostability Dark (24 h) [2] [%]	effect in a broad panel of rodent behaviors (rodent behaviors)	EC50 (nonmuscle myosin II) [µM]	Change in amplitude at 1 uM @ 15 min [1]	Qualitative impact on contractility (e.g. Full = Complete inhibition of contraction) ([1]; 0.1 uM-1.0 uM)	Qualitative impact on contractility (e.g. Full = Complete inhibition of contraction) ([1]; 3.0 uM)	Photostability 4 hours (4 h) [%]	Photostability 24 hours (24 h) [%]	Photostability Dark (24 h) [%]
O=C1c2cc(Cl)ccc2N=C2N(c3ccccc3)CC[C@@]12O [BPN-0025002]	0.76	1.97	–	–	–	–	–	–	–	2.6	−38.9 ± 2.4%	–	–	–	–	–
Cc1cc(N2CC[C@@]3(O)C(=O)c4c(sc(C)c4C)NC23)ccc1C#N (stereo partly drawn) [BPN-0026886]	–	–	19	7.0	4.2	–	–	–	–	–	–	–	–	>99	98.5	>99
